# According to patent US20080262266A1, “Method for the Production of Xylyendiamine” (BASF SE, priority 2005, published 2008):
# Like-named read-outs stand apart in the source and are kept apart here.
# Legend:
# [1] = solubility of isophthalonitrile (IPN) in organic solvents; format: physicochemical; details: 60° C.
# [2] = 70° C.; cited from earlier work
compound,measurement,setting,value
"N#Cc1cccc(C#N)c1 [IPN, 1,3-dicyanobenzene]",solubility of IPN in MXDA,[1]; MXDA,15 % by weight
same,solubility of IPN in THF,[1]; THF,~19 % by weight
same,solubility of IPN in methanol,[1]; methanol,18 % by weight
same,solubility of IPN in MXDA,[2],about 20 % by weight
